Measured values taken from patent US20050118658A1, “Use of ERRalpha phosphorylation status as a breast cancer biomarker” (priority 2003, published 2005).

Assays:
[1] = system: phosphorylated Akt (p-Akt); test: Immunoblot analysis of phosphorylated versus total Akt in BT-474 cells; format: cell-based, human; conditions: 48 h, 20 μg/ml trastuzumab, 1 μM gefitinib, 20 μM U0126 or 20 μM LY294002
Experimental: (§1) BT-474 cells were co-transfected in parallel with the ERE(5x)-regulated and TATA dual-luciferase reporter gene sets along with the indicated expression plasmids. […] In panel (B), the cells were incubated for 48 h in estrogen-free medium supplemented with dimethyl sulfoxide as the drug vehicle control, 20 μM U0126 (MEK inhibitor), or 20 μM LY294002 (PI3K inhibitor) as indicated. After incubation for 48 h, the cells were harvested for dual-luciferase assays. Data were analyzed as described in the legend to FIG. 2. (C) Immunoblot analysis of protein extracts (20 μg per sample) prepared from BT-474 cells treated as in panels A and B above for luciferase activity. The membrane was probed with antibodies that react specifically with ERRα. Reactive proteins were visualized by enhanced chemiluminescence and autoradiography. (D) Immunoblot analysis as in panel C above, only the membrane was probed with antibodies that react specifically with phosphorylated Akt (p-Akt), total Akt, phosphorylated MAPK (p-MAPK) or total MAPK.
(§2) Proteins were extracted in Cell Lysis Buffer (Cell Signaling Technology, Beverly, Mass.) supplemented with Protease Inhibitor Cocktail Set III and Phosphatase Inhibitor Cocktail Set II (Calbiochem). Protein amounts were quantified with Coomassie Protein Assay Reagent (Pierce Biotechnology) with BSA as the standard. […] In FIG. 5D, the membrane was probed sequentially with p44/42 MAPK polyclonal antibody, phospho-specific p44/42 MAPK (Thr202/Tyr204) monoclonal antibody E10, Akt polyclonal antibody, and phospho-specific Akt (Ser473) polyclonal antibody (Cell Signaling Technology). Reacting material was detected using horseradish peroxidase-conjugated secondary antibodies (Jackson ImmunoResearch Laboratories, West Grove, Pa.) together with enhanced chemiluminescence (Amersham Pharmacia) and autoradiography.

MCF-7 cells [2] = test: 7 day growth assay, DNA content per well, MCF-7 cells; conditions: 1I M gefitinib, 7 days
Experimental: Using 12-well plates, MCF-7 and BT-474 cells were seeded at 15,000 and 30,000 cells per well. Cells were cultured for 7 days in the presence of the indicated test agents with media changes at day 0, day 2 and day 5. Following the 7 day treatment course, cells were assayed for DNA content per well. The results shown represent the mean ± SEM of three replicate wells.
MCF-7 and BT-474 cells were seeded in 12-well plates at 15,000 and 30,000 cells per well, respectively. Cells were allowed to grow in the presence of the test agents for a total of 7 days, after which, they were harvested for measurement of DNA content per well using a fluorescent DNA quantification kit (Bio-Rad, Hercules, Calif.). Day 0 was considered to be 24 h after the cells were seeded, when the medium was initially replaced with fresh medium containing the test agents. The cell culture medium was again exchanged with fresh medium containing the appropriate test agents on days 2 and 5. […] The effects on cellular proliferation of the test agents are shown as the percentage of DNA amount per well relative to the control treated cells.

BT-474 cells = conditions: literature statement; cited from earlier work
ERRα = test: Immunoblot analysis of ERRα expression in ERRα-transfected BT-474 cells; format: cell-based, human; conditions: BT-474 cells transfected with ERRα, 48 h; 20 μg/ml trastuzumab, 1 μM gefitinib, 20 μM U0126 or 20 μM LY294002
Experimental: as §1, §2

MCF-7 cells [3] = conditions: literature statement; cited from earlier work
[4] = system: phosphorylated MAPK (p-MAPK); test: Immunoblot analysis of phosphorylated versus total MAPK in BT-474 cells; format: cell-based, human; conditions: 48 h, 20 μg/ml trastuzumab, 1 μM gefitinib, 20 μM U0126 or 20 μM LY294002
Experimental: as §1, §2

## COc1cc2ncnc(Nc3ccc(F)c(Cl)c3)c2cc1OCCCN1CCOCC1 [gefitinib]
[1]
  phosphorylation of Akt / PI3K/Akt pathway activation (immunoblot): inhibited activation of the MEK/MAPK and PI3K/Akt signaling pathways
MCF-7 cells [2]
  effect on growth of MCF-7 cells: did not significantly affect the growth
BT-474 cells
  effect on growth of BT-474 cells (known, ref. 26): significantly inhibit the growth
ERRα
  ERRα expression (immunoblot): expression was maintained
MCF-7 cells [3]
  effect on growth of MCF-7 cells (known, ref. 35): affect only minimally the growth
[4]
  phosphorylation of MAPK / MEK/MAPK pathway activation (immunoblot): inhibited activation of the MEK/MAPK and PI3K/Akt signaling pathways
